US10730885B1, “Coumarin derivatives” (KING SAUD UNIVERSITY, priority 2019, dated 2020)
Converted amounts (≈) assume the structure as drawn.

Columns and labels:
[1] = system: tested microorganisms; test: MIC by two fold serial dilution, summary over the tested microorganisms; type: cell-based
Description: (§1) The newly synthesized compounds were individually tested for their in vitro antimicrobial activity against the standard bacteria strains of American Type Culture Collection (ATCC), namely, Staphylococcus aureus ATCC 29213, Bacillus subtilis ATCC 6633, Bacillus megaterium ATCC 9885 (Gram-positive), Escherichia coli ATCC 2592 and Pseudomonas aeruginosa ATCC 27953 (Gram-negative). In addition, they were microbiologically tested against the locally isolated Saccharomyces cerevisiae (yeast) and the standard strain of Agricultural Research Service Culture Collection (NRRL) of the yeast like pathogenic fungus Candida albicans NRRL Y-477. The primary screening was carried out using the agar well diffusion method using nutrient agar (NA) medium and Sabourand dextrose agar (SDA) medium for pathological tested bacteria and yeast, respectively.
(§2) The bacteriostatic activity of the active compounds (having IZ>16 mm) was then evaluated using the two fold serial dilution technique. Two-fold serial dilutions of the tested compound solutions were prepared using the proper nutrient broth. The final concentration of the solutions were 1000, 500, 250 and 125 μg/ml. The tubes were then inoculated with the test organisms, grown in their suitable broth at 37° C. for 24 hours for tested microorganisms. (1×10^8 CFU/ml for bacteria and 1×10^6 CFU/ml of yeast), each 5 ml received 0.1 ml of the above inoculum and incubated at 37° C. for 24 h. The lowest concentration showing no growth was taken as the minimum inhibitory concentration (MIC).

[2] = system: Pseudomonas aeruginosa ATCC 27953; test: MIC by two fold serial dilution technique; type: cell-based; conditions: ATCC27953, P. aeruginosa, read-out: Minimal Inhibitory Concentration (MIC) PA
Description: as §1, §2

[3] = system: Candida albicans NRRL Y-477; test: MIC by two fold serial dilution technique; type: cell-based; conditions: NRRLY477, C. albicans, read-out: Minimal Inhibitory Concentration (MIC) CA
Description: as §1, §2

[4] = system: Saccharomyces cerevisiae (local isolate); test: MIC by two fold serial dilution technique; type: cell-based; conditions: read-out: Minimal Inhibitory Concentration (MIC) SC
Description: as §1, §2

[5] = system: Bacillus megaterium ATCC 9885; test: MIC by two fold serial dilution technique; type: cell-based; conditions: Priestia megaterium, ATCC9885; B. megaterium; read-out: Minimal Inhibitory Concentration (MIC) BM
Description: as §1, §2

[6] = DPPH microplate radical scavenging antioxidant assay; type: biochemical; conditions: DPPH, 30 min, mean ± SD (n = 3)
Summary of the method: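 Compounds, starting at 200 μg/mL in a dilution series, incubated with 0.2 mM methanolic DPPH for 30 min in the dark at 25° C. Absorbance at 515 nm converted to percent antioxidant activity; IC50 from concentration series, triplicate, mean±SD (n=3).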

[7] = system: Candida albicans NRRL Y-477; test: Agar well diffusion, primary antimicrobial screening; type: cell-based; conditions: Candida albicans, NRRLY477; C. albicans NRRL Y-477; 100 μL of 10 mg/ml in DMSO, 24 h; read-out: Inhibition Diameter Zone CA
Summary of the method: (§3)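 Seeded agar (bacteria 1×10^8 CFU/mL on nutrient agar; yeasts 1×10^6 CFU/ml on Sabouraud dextrose agar), 10 mm wells loaded with compound at 10 mg/ml in DMSO. Incubated 24 h at 37° C. Inhibition zone diameter (mm), mean of triplicate; DMSO negative control.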

[8] = system: trypsin; test: Proteinase inhibitory activity (trypsin/casein); type: biochemical; conditions: for % Inhibition of proteinase activity: 250 μg/ml, mean ± SD (n = 3)
Summary of the method: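 Trypsin (0.06 mg) in 20 mM Tris-HCl pH 7.4 was preincubated 5 min with test sample (250 μg/ml solution), then 0.8% casein was added for 20 min. The reaction was stopped with perchloric acid, and supernatant absorbance was read at 280 nm after centrifugation. Percent inhibition relative to the uninhibited control was determined in triplicate.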

[9] = system: Escherichia coli ATCC 2592; test: MIC by two fold serial dilution technique; type: cell-based; conditions: ATCC2592, E. coli, read-out: Minimal Inhibitory Concentration (MIC) EC
Description: as §1, §2

[10] = system: Staphylococcus aureus ATCC 29213; test: MIC by two fold serial dilution technique; type: cell-based; conditions: ATCC29213, S. aureus, read-out: Minimal Inhibitory Concentration (MIC) SA
Description: as §1, §2

[11] = system: Bacillus subtilis ATCC 6633; test: MIC by two fold serial dilution technique; type: cell-based; conditions: ATCC6633, B. subtilis, read-out: Minimal Inhibitory Concentration (MIC) BS
Description: as §1, §2

[12] = system: Escherichia coli ATCC 2592; test: Agar well diffusion, primary antimicrobial screening; type: cell-based; conditions: Escherichia coli, ATCC2592; E. coli ATCC 2592; 100 μL of 10 mg/ml in DMSO, 24 h; read-out: Inhibition Diameter Zone EC
Summary of the method: as §3

[13] = system: Bacillus megaterium ATCC 9885; test: as above; type: cell-based; conditions: Priestia megaterium, ATCC9885; B. megaterium ATCC 9885; 100 μL of 10 mg/ml in DMSO, 24 h; read-out: Inhibition Diameter Zone BM
Summary of the method: as §3

[14] = system: Pseudomonas aeruginosa ATCC 27953; test: as above; type: cell-based; conditions: Pseudomonas aeruginosa, ATCC27953; P. aeruginosa ATCC 27953; 100 μL of 10 mg/ml in DMSO, 24 h; read-out: Inhibition Diameter Zone PA
Summary of the method: as §3

[15] = system: Bacillus subtilis ATCC 6633; test: as above; type: cell-based; conditions: Bacillus subtilis, ATCC6633; B. subtilis ATCC 6633; 100 μL of 10 mg/ml in DMSO, 24 h; read-out: Inhibition Diameter Zone BS
Summary of the method: as §3

[16] = system: formaldehyde-induced paw oedema; test: Formaldehyde-induced rat paw oedema; type: in vivo; conditions: 2.5 mg/kg orally
Method: Testing was performed to determine formaldehyde-induced rat paw oedema (edema). For the formaldehyde-induced rat paw oedema (edema) test, female Wister albino rats (150-175 g) were used for determination of the anti-inflammatory activities. The rats were obtained from the animal house colony of the National Organization for Drug Control and Research (NODCAR), Egypt. The animals were kept in standard plastic cages in an air conditioned room at 22±3° C., 55±5% humidity and supplied with standard laboratory diet and water ad libitum. All animal experimental procedures were carried out according to the Ethics Committee of the National Research Centre, Cairo, Egypt and followed the guidelines of the National Institutes of Health, Guide for Care and Use of Laboratory Animals (1985).
The percentage protection against inflammation was calculated by using following formula:
[formula] where Vc is the mean percentage increase in paw volume in the control and Vd is the mean percentage increase in paw volume after injection of the test compound. Values were expressed as mean±standard error (S.E.). Comparisons between mean values were carried out using two-way analysis of variance (ANOVA), followed by Tukey Kramer multiple comparisons test for all acute toxicity study tests. […] was considered significant. Graph pad prism software (version 6) was used to carry out all statistical tests.

Row | SMILES | MIC ([1]; against most of the tested microorganisms) | MIC [2] | MIC [3] | MIC [4] | MIC [5] | melting point | IC50 [6] | zone of inhibition at 10000 µg/mL [7] | in vitro anti-proteinase activity compared with aspirin [8] | % Inhibition of proteinase activity [8] | MIC ([1]; against gram-positive bacteria) | MIC [9] | MIC [10] | MIC [11] | zone of inhibition at 10000 µg/mL [12] | zone of inhibition at 10000 µg/mL [13] | zone of inhibition at 10000 µg/mL [14] | zone of inhibition at 10000 µg/mL [15] | in vivo anti-inflammatory activity [16]
1 | Cc1ccc2oc(=O)c3c(c2c1)OC(N=Cc1ccccc1)=C(C#N)C3c1ccc([N+](=O)[O-])cc1 (racemic) [Compound 8a, (±)-2-(benzylideneamino)-9-methyl-4-(4-nitrophenyl)-5-oxo-4H,5H-pyrano[3,2-c]chromene-3-carbonitrile] | 250 to 500 µg/mL (≈ 539 to 1080 µM) | 500 µg/mL (≈ 1080 µM) | 500 µg/mL (≈ 1080 µM) | 500 µg/mL (≈ 1080 µM) | 500 µg/mL (≈ 1080 µM) | 208 to 209 °C | — ((—): inactive (IC50 > 200 μg/mL)) |  |  |  |  |  |  |  |  |  |  |  | 
2 | Cc1ccc2oc(=O)c3c(c2c1)OC(N=Cc1ccc(Cl)cc1Cl)=C(C#N)C3c1ccc([N+](=O)[O-])cc1 (racemic) [Compound 8e, (±)-2-((2,4-dichlorobenzylidene)amino)-9-methyl-4-(4-nitrophenyl)-5-oxo-4H,5H-pyrano[3,2-c]chromene-3-carbonitrile] |  |  | 500 µg/mL (≈ 939 µM) | 500 µg/mL (≈ 939 µM) |  | 236 to 238 °C | — ((—): inactive (IC50 > 200 μg/mL)) | 20 mm | as potent | 45.78 ± 1.62% |  |  |  |  |  |  |  |  | 
3 | Cc1ccc2oc(=O)c3c(c2c1)OC(N)=C(C#N)C3c1ccc([N+](=O)[O-])cc1 (racemic) [Compound 5a, (±)-2-amino-9-methyl-4-(4-nitrophenyl)-5-oxo-4H,5H-pyrano[3,2-c]chromene-3-carbonitrile] |  |  |  |  |  | 259 to 261 °C | — ((—): inactive (IC50 > 200 μg/mL)) |  |  | 17.38 ± 1.63% | 500 to 1000 µg/mL (≈ 1330 to 2660 µM) |  |  |  |  |  |  |  | 
4 | COc1cc(C=NC2=C(C#N)C(c3ccc([N+](=O)[O-])cc3)c3c(c4cc(C)ccc4oc3=O)O2)cc(OC)c1OC (racemic) [Compound 8c, (±)-9-methyl-4-(4-nitrophenyl)-5-oxo-2-((3,4,5-trimethoxybenzylidene)amino)-4H,5H-pyrano[3,2-c]chromene-3-carbonitrile] |  | 500 µg/mL (≈ 903 µM) | 500 µg/mL (≈ 903 µM) | 500 µg/mL (≈ 903 µM) | 500 µg/mL (≈ 903 µM) | 221 to 223 °C | — ((—): inactive (IC50 > 200 μg/mL)) |  | more potent | 68.5±6.23% |  | 500 µg/mL (≈ 903 µM) | 500 µg/mL (≈ 903 µM) | 500 µg/mL (≈ 903 µM) |  |  |  |  | 
5 | Cc1ccc2oc(=O)c3c(c2c1)OC(N=Cc1ccc(Cl)cc1Cl)=C(C#N)C3c1ccco1 (racemic) [Compound 8f, (±)-2-((2,4-dichlorobenzylidene)amino)-4-(furan-2-yl)-9-methyl-5-oxo-4H,5H-pyrano[3,2-c]chromene-3-carbonitrile] |  | 1000 µg/mL (≈ 2100 µM) | 500 µg/mL (≈ 1050 µM) | 500 µg/mL (≈ 1050 µM) | 1000 µg/mL (≈ 2100 µM) | > 300 °C | — ((—): inactive (IC50 > 200 μg/mL)) |  |  | 26.83 ± 5.33% | 500 to 1000 µg/mL (≈ 1050 to 2100 µM) | 1000 µg/mL (≈ 2100 µM) | 500 µg/mL (≈ 1050 µM) | 500 µg/mL (≈ 1050 µM) | 20 mm | 20 mm |  |  | 
6 | COc1cc(C=NC2=C(C#N)C(c3ccco3)c3c(c4cc(C)ccc4oc3=O)O2)cc(OC)c1OC (racemic) [Compound 8d, (±)-4-(furan-2-yl)-9-methyl-5-oxo-2-((3,4,5-trimethoxybenzylidene)amino)-4H,5H-pyrano[3,2-c]chromene-3-carbonitrile] |  |  | 1000 µg/mL (≈ 2010 µM) | 1000 µg/mL (≈ 2010 µM) |  | 248 to 250 °C | 82.92 ± 3.30 µg/mL (≈ 166 µM) |  | as potent | 43.4 ± 1.52% |  |  | 1000 µg/mL (≈ 2010 µM) |  | < 15 mm | < 15 mm | < 15 mm | < 15 mm | 
7 | Cc1ccc2oc(=O)c3c(c2c1)OC(N)=C(C#N)C3c1ccco1 (racemic) [Compound 5b, (±)-2-amino-4-(furan-2-yl)-9-methyl-5-oxo-4H,5H-pyrano[3,2-c]chromene-3-carbonitrile] |  |  |  |  |  | 251 to 253 °C | — ((—): inactive (IC50 > 200 μg/mL)) |  | more potent | 74.68±3.01% | 500 to 1000 µg/mL (≈ 1560 to 3120 µM) |  |  |  |  |  |  |  | significant protection against inflammation
